Experimental data published in patent US9518064B2, “Imidazothiadiazole and imidazopyridazine derivatives as protease activated receptor 4 (PAR4) inhibitors for treating platelet aggregation” (BRISTOL-MYERS SQUIBB COMPANY, priority 2012, dated 2016).

Legend:
Type in all cases: cell-based
PAR4 [1] = molecular target: T1, PAR4 (Homo sapiens (Human), UniProt Q96RI0); assay: FLIPR assay in PAR4-expressing HEK293 cells (calcium mobilization); conditions: PAR4 antagonist activity, FLIPR assay as described in Example A
PAR4 [2] = molecular target: T1, PAR4; assay: Gamma thrombin induced platelet aggregation assay (PRP assay); conditions: γ-thrombin induced platelet aggregation in PRP
human PRP = assay: Tissue factor-induced platelet aggregation assay; conditions: FIGS. 1 and 2
Excerpt: Example E is a tissue factor-induced platelet aggregation assay. The conditions in this assay mimic the physiological events during thrombus formation. In this assay, platelet aggregation in human PRP was initiated by the addition of tissue factor and CaCl2. Tissue factor, the initiator of the extrinsic coagulation cascade, is highly elevated in human atherosclerotic plaque. Exposure of blood to tissue factor at the atherosclerotic site triggers a robust generation of thrombin and induces the formation of obstructive thrombi.
The ability of PAR1 or PAR4 antagonists to inhibit platelet aggregation induced by endogenous thrombin can be tested in a tissue factor driven aggregation assay. Aggregation is initiated by addition of CaCl2 and recombinant human tissue factor, which results in the generation of thrombin through activation of the coagulation pathway in the plasma. Anticoagulant agents such as corn trypsin inhibitor (Haematologic Technologies, Essex Junction, Vt.) at 50 μg/ml and PEFABLOC® FG (Centerchem, Norwalk, Conn.) are also added to the sample to prevent fibrin clot formation during the time of the study. Platelet aggregation is monitored using standard instrumentation including optical aggregometer or impedance aggregometer.

T1 sequence (Q96RI0 18-385): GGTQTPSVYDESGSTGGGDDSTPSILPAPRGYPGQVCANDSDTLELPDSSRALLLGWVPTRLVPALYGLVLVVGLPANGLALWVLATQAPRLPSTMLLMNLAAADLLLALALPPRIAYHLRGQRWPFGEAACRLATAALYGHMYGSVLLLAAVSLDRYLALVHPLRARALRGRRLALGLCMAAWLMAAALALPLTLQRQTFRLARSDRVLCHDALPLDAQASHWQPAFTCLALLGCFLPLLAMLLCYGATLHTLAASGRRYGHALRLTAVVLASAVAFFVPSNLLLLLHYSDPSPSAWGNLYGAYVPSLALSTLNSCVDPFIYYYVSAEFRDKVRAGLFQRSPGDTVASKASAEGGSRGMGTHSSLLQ

Molecule	IC50 (PAR4 [1]) [nM]	IC50 (PAR4 [2]) [nM]	inhibition of tissue factor-induced platelet aggregation (human PRP)
CCCOc1ncc(-c2cccc(COc3cc(OC)cc4oc(-c5cn6nc(OC)sc6n5)cc34)c2)cn1 [Example 37]	0.36	–	–
COc1ccc(COC(C)c2ccc(-c3cccc(COc4cc(OC)cc5oc(-c6cn7nc(OC)sc7n6)cc45)c3)nc2)cc1 (stereo not drawn) [Example 61]	1	–	–
COc1cc(OCc2cccc(-c3ccc(F)c(C)n3)c2)c2cc(-c3cn4nc(OC)sc4n3)oc2c1 [Example 32]	0.57	2770	–
COc1cc(OCc2cccc(-c3ccc(F)cn3)c2)c2cc(-c3cn4nc(OC)sc4n3)oc2c1 [Example 14]	1.53	–	–
trans-cinnamoyl-Phe(4-F)-Phe(4-guanidino)-Leu-Arg-Arg-NH2 [reference compound]	–	–	effective inhibition
COc1cc(OCc2cccc(-c3ccc(C(=O)N4CCOCC4)nc3)c2)c2cc(-c3cn4nc(OC)sc4n3)oc2c1 [Example 57]	1.66	–	–
COc1cc(OCc2cccc(-c3ccnc(F)c3)c2)c2cc(-c3cn4nc(OC)sc4n3)oc2c1 [Example 55]	0.69	–	–
COc1cc(OCc2cccc(-c3ccc(N4CCOCC4)nc3)c2)c2cc(-c3cn4nc(OC)sc4n3)oc2c1 [Example 59]	4.81	2670	–
COc1cc(OCc2cccc(-c3cccnc3C#N)c2)c2cc(-c3cn4nc(OC)sc4n3)oc2c1 [Example 26]	–	970	–
COc1cc(OCc2cncc(-c3cnc(OC)nc3)c2)c2cc(-c3cn4nc(OC)sc4n3)oc2c1 [Example 75]	2.14	–	–
COc1ccc(-c2cccc(COc3cc(OC)cc4oc(-c5cn6nc(OC)sc6n5)cc34)c2)c(C)c1 [Example 8]	1.69	–	–
COc1cc(OCc2cccc(C3(F)CCOCC3)n2)c2cc(-c3cn4nc(OC)sc4n3)oc2c1 [Example 113, 6-(4-((6-(4-Fluorotetrahydro-2H-pyran-4-yl)pyridin-2-yl)methoxy)-6-methoxybenzofuran-2-yl)-2-methoxyimidazo[2,1-b][1,3,4]thiadiazole]	0.35	–	–
COc1cc(OCc2cccc(-c3coc(C(N)=O)c3)c2)c2cc(-c3cn4nc(OC)sc4n3)oc2c1 [Example 41]	8.68	–	–
COc1cc(OCc2cccc(-c3ccc(F)cn3)c2)c2cc(-c3cn4nc(C(C)(F)F)sc4n3)oc2c1 [Example 67]	4.54	–	–
COc1cc(OCc2cccc(-c3c(C)noc3C)c2)c2cc(-c3cn4nc(OC)sc4n3)oc2c1 [Example 5]	2.36	–	–
COc1cc(OCc2cccc(C3(OC)CCOCC3)n2)c2cc(-c3cn4nc([C@H](C)F)sc4n3)oc2c1 [Example 112, (S)-2-(1-Fluoroethyl)-6-(6-methoxy-4-((6-(4-methoxytetrahydro-2H-pyran-4-yl)pyridin-2-yl)methoxy)benzofuran-2-yl)imidazo[2,1-b][1,3,4]thiadiazole]	0.36	–	–
COc1cc(OCc2cccc(-c3csc(C)n3)c2)c2cc(-c3cn4nc(OC)sc4n3)oc2c1 [Example 11]	3.66	–	–
COc1cc(OCc2cccc(-c3ccc(C)nc3F)c2)c2cc(-c3cn4nc(OC)sc4n3)oc2c1 [Example 39]	0.53	–	–
COc1cc(OCc2cccc(-c3ccc(F)cc3F)c2)c2cc(-c3cn4nc(OC)sc4n3)oc2c1 [Example 17]	3.78	–	–
COc1cc(OCc2cccc(-c3ccc(Cl)nc3)n2)c2cc(-c3cn4nc(OC)sc4n3)oc2c1 [Example 76]	6.66	–	–
COc1cc(OCc2cccc(-c3ccc4nsnc4c3)c2)c2cc(-c3cn4nc(OC)sc4n3)oc2c1 [Example 20]	8.54	–	–
COc1cc(OCc2cccc(-c3ncccc3F)c2)c2cc(-c3cn4nc(OC)sc4n3)oc2c1 [Example 44]	1.21	–	–
COc1cc(OCc2cccc(-c3csc4ccccc34)c2)c2cc(-c3cn4nc(OC)sc4n3)oc2c1 [Example 12]	3.76	–	–
COc1cc(OCc2cccc(-c3ncc(Cl)cc3F)c2)c2cc(-c3cn4nc(OC)sc4n3)oc2c1 [Example 50]	1.88	–	–
COc1cc(OCc2cccc(-c3ccc(Cl)cn3)c2)c2cc(-c3cn4nc(OC)sc4n3)oc2c1 [Example 36]	0.38	–	–
